Data: ChEMBL document CHEMBL3351764, “Design, synthesis and biological activity of flavonoid derivatives as selective agonists for neuromedin U 2 receptor” (Bioorg Med Chem, 2014)
Active and inactive are the calls of the source.

Columns and labels:
[1] = biological target: Adrenocorticotropic hormone receptor (Homo sapiens) (UniProt Q01718); experiment: Agonist activity at human MC2 receptor at 100 uM to 5 mM
[2] = biological target: Adrenocorticotropic hormone receptor (Mus musculus) (UniProt Q64326); experiment: Agonist activity at mouse MC2 receptor at 100 uM to 5 mM
Sequence of Adrenocorticotropic hormone receptor (Mus musculus) (Q64326 whole entry): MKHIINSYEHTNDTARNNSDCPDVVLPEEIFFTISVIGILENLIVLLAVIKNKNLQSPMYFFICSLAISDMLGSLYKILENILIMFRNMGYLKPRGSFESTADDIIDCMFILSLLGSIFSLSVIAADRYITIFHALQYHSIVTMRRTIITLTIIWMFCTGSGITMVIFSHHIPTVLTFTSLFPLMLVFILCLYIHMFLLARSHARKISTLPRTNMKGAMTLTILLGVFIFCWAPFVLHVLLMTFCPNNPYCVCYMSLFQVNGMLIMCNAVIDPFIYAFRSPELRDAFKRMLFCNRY

[3] = biological target: Melanocortin receptor 3 (Mus musculus) (UniProt P33033); experiment: Agonist activity at mouse MC3 receptor at 100 uM to 5 mM
Sequence of Melanocortin receptor 3 (Mus musculus) (P33033 whole entry): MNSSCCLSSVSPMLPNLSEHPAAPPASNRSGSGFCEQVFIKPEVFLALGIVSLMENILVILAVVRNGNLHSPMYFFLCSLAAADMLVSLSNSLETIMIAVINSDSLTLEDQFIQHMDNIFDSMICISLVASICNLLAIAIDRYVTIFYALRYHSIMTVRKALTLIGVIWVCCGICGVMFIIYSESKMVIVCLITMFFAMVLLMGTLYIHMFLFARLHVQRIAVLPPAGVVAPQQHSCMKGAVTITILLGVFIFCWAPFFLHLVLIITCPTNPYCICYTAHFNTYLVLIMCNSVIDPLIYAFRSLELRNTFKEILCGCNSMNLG

[4] = biological target: Melanocortin receptor 4 (Mus musculus) (UniProt P56450); experiment: Agonist activity at mouse MC4 receptor at 100 uM to 5 mM
Sequence of Melanocortin receptor 4 (Mus musculus) (P56450 whole entry): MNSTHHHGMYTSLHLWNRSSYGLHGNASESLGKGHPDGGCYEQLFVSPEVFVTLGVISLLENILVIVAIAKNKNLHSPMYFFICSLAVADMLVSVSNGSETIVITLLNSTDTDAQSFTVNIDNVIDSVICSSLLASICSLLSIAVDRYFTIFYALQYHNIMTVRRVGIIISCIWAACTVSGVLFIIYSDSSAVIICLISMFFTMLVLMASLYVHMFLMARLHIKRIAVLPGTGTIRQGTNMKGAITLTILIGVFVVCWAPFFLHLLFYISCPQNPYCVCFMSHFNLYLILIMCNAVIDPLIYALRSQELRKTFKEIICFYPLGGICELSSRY

[5] = biological target: Melanocortin receptor 5 (Mus musculus) (UniProt P41149); experiment: Agonist activity at mouse MC5 receptor at 100 uM to 5 mM
Sequence of Melanocortin receptor 5 (Mus musculus) (P41149 whole entry): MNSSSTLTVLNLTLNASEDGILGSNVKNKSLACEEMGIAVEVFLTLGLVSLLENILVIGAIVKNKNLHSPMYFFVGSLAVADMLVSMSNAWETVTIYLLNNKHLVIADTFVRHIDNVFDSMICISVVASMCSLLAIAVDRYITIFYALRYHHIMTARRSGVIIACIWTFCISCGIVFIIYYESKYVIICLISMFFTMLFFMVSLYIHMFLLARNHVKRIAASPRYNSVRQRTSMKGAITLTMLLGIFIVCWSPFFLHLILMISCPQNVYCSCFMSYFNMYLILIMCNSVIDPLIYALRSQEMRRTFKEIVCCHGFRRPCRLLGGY

[6] = biological target: T1, Orexin receptor type 2 (Homo sapiens) (UniProt O43614); experiment: Agonist activity at human orexin 2 receptor at 100 uM to 5 mM
T1 sequence (whole entry): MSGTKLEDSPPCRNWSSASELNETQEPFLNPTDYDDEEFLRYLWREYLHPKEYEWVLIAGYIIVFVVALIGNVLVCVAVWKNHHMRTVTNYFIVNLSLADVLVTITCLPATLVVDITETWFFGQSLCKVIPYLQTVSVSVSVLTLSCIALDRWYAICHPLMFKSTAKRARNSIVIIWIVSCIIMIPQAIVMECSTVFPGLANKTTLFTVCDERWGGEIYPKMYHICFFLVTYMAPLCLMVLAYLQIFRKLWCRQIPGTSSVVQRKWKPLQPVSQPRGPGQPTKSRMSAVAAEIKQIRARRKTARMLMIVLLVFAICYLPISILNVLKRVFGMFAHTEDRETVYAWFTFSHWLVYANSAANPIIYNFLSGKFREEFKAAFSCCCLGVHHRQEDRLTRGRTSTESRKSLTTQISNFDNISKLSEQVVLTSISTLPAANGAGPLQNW

[7] = biological target: D(1A) dopamine receptor (Homo sapiens) (UniProt P21728); experiment: Agonist activity at human D1 receptor at 100 uM to 5 mM
Sequence of D(1A) dopamine receptor (Homo sapiens) (P21728 whole entry): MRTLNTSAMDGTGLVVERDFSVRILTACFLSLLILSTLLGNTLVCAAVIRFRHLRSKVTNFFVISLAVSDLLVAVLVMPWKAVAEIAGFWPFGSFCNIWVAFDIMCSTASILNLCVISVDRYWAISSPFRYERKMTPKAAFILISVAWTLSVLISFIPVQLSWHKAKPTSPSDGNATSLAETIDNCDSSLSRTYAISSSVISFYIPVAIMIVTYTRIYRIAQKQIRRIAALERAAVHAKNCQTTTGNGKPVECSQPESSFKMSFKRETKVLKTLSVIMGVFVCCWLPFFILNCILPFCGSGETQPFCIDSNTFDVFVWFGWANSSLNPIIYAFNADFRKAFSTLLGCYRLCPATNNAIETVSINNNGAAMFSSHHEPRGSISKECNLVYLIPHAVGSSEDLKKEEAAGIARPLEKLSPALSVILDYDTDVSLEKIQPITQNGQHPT

[8] = biological target: Adenosine receptor A2a (Homo sapiens) (UniProt P29274); experiment: Agonist activity at human A2a receptor at 100 uM to 5 mM
Sequence of Adenosine receptor A2a (Homo sapiens) (P29274 whole entry): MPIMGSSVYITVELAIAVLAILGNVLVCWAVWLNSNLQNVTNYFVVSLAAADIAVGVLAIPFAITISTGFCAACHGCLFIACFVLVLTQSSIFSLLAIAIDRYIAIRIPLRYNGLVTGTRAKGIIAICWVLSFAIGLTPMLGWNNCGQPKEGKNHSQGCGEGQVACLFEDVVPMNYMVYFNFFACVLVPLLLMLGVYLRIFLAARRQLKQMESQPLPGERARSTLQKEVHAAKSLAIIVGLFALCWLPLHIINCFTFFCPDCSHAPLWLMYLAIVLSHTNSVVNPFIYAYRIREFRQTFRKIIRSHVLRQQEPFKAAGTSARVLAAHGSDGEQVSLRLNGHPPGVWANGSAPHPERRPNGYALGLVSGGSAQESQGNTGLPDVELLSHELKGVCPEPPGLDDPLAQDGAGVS

[9] = biological target: T2, Adenosine receptor A3 (Homo sapiens) (UniProt P0DMS8); experiment: Agonist activity at human A3 receptor at 100 uM to 5 mM
T2 sequence (whole entry): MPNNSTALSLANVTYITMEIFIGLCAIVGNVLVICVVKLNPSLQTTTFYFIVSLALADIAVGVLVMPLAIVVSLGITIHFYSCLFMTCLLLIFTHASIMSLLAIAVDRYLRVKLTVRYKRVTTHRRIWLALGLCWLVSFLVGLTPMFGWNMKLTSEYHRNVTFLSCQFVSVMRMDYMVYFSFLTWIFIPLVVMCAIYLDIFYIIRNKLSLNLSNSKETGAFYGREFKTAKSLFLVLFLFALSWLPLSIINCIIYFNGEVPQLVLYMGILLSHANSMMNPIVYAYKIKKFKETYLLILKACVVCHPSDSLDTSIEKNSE

[10] = biological target: T3, Parathyroid hormone/parathyroid hormone-related peptide receptor (Homo sapiens) (UniProt Q03431); experiment: Agonist activity at human PTH receptor at 100 uM to 5 mM
T3 sequence (whole entry): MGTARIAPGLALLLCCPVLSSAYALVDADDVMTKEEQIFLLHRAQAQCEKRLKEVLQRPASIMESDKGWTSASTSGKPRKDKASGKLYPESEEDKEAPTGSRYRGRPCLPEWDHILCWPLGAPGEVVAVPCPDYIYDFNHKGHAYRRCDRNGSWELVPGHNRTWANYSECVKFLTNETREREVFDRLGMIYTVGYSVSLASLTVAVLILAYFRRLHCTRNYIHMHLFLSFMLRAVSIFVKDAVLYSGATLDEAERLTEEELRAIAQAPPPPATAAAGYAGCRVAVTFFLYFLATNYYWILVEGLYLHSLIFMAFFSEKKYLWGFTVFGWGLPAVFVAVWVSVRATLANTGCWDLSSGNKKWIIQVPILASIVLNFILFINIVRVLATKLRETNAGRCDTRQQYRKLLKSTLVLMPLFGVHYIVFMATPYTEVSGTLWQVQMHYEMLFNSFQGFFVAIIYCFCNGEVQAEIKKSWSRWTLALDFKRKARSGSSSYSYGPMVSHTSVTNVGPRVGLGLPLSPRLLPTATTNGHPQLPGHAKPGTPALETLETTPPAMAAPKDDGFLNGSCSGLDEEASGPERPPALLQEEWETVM

[11] = biological target: T4, C5a anaphylatoxin chemotactic receptor 1 (Homo sapiens) (UniProt P21730); experiment: Agonist activity at human C5a receptor at 100 uM to 5 mM
T4 sequence (whole entry): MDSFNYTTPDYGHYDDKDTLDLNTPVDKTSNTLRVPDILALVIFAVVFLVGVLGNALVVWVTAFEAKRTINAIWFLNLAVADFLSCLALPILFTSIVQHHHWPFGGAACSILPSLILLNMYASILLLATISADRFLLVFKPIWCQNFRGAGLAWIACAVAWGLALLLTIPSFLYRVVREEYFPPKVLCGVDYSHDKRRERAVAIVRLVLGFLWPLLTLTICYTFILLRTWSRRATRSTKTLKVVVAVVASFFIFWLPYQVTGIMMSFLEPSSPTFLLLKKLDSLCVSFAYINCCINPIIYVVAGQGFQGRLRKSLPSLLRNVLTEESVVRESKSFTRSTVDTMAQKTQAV

[12] = biological target: T5, Neuropeptide Y receptor type 5 (Homo sapiens) (UniProt Q15761); experiment: Agonist activity at human NPY5 receptor at 100 uM to 5 mM
T5 sequence (whole entry): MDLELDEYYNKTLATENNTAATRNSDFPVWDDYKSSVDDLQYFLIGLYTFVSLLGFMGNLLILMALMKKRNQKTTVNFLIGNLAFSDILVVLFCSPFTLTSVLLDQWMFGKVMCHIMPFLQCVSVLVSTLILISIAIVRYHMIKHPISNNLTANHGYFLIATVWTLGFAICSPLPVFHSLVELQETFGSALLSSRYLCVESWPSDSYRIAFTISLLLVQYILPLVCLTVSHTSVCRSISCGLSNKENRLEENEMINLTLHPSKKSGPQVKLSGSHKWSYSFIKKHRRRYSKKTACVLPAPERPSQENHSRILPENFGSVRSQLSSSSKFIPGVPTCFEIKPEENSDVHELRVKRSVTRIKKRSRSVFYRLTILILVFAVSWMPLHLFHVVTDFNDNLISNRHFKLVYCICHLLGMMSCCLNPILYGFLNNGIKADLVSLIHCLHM

Measured: Activity

Sequence of Adrenocorticotropic hormone receptor (Homo sapiens) (Q01718 whole entry): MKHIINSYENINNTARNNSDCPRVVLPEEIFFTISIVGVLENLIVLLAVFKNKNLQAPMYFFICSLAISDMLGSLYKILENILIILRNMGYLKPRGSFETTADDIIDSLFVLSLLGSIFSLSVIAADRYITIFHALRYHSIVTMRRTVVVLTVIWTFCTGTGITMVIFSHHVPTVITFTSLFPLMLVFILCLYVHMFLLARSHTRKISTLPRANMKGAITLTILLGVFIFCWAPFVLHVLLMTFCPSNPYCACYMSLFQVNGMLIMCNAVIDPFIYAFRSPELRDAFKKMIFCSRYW

CN(C)c1ccc(-c2oc3ccccc3c(=O)c2O)cc1
inactive: all assays above

O=c1c(O)c(-c2c(F)cccc2Cl)oc2ccccc12
inactive: all assays above

Fc1ccccc1C1C=Cc2ccccc2O1 (racemic)
inactive: all assays above
